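Tested at 5 concentrations; 48 h exposure; 96-well plates; endpoints linearly interpolated, else capped at highest concentration. At the GI50, growth is halved.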 Calls of active or inactive are those of the source. Cut-off read from the data, not from the text of the source: active = GI50 up to about 1.1 µM and inactive = higher.

The values that follow come from ChEMBL document CHEMBL1201862, “PubChem BioAssay data set” (2004).

Some test systems named below: A498; CAKI-1; DU-145; EKVX; HOP-62; HOP-92; HT-29; NCI-H460; NCI-H522; NCI/ADR-RES; OVCAR-4; RXF 393; SF-268; SF-295; SK-MEL-2; SK-OV-3; SN12C; SNB-75; T47D; U-251.
Assay in all cases: inhibition of tumour cell growth, NCI panel, 48 h

Turning to `Nc1nc(SCc2ccccc2Cl)cc(C(=O)O)n1`, the GI50 in the assay on A498 is > 100 µM (inactive); in the assay on CAKI-1, > 100 µM (inactive); in the assay on DU-145 it was > 100 µM (inactive); with EKVX, 54.1 µM (inactive); in the assay on HOP-62 it was 63.1 µM (inactive); in the assay on HOP-92, 46.2 µM (inactive). Also, the GI50 in the assay with HT-29 is > 100 µM (inactive); in the assay on NCI-H460, 41.5 µM (inactive); with NCI-H522, 30.9 µM (inactive); in the assay with NCI/ADR-RES, 33.4 µM (inactive); in the assay with OVCAR-4, 60 µM (inactive); in the assay on RXF 393 it was > 100 µM (inactive). The GI50 in the assay with SF-268 is 52.7 µM (inactive); in the assay on SF-295, 58.2 µM (inactive); in the assay with SK-MEL-2, 58.9 µM (inactive); in the assay on SK-OV-3, > 100 µM (inactive); in the assay on SN12C, 97.1 µM (inactive); in the assay with SNB-75 it was > 100 µM (inactive). The GI50 with T47D is > 100 µM (inactive); with U-251, 54.8 µM (inactive).
With `O=C(NCCN1CCCCC1)c1ccc(I)cc1`, the GI50 was 24.8 µM (inactive) in the assay on A498; > 100 µM (inactive) in the assay with CAKI-1; 69.3 µM (inactive) in the assay on DU-145; > 100 µM (inactive) in the assay on EKVX; > 100 µM (inactive) with HOP-62; 96.4 µM (inactive) in the assay on HOP-92. For the same molecule, the GI50 was 39.5 µM (inactive) with HT-29; > 100 µM (inactive) in the assay on NCI-H460; > 100 µM (inactive) in the assay with NCI-H522; > 100 µM (inactive) in the assay with NCI/ADR-RES; > 100 µM (inactive) in the assay on OVCAR-4; 42.4 µM (inactive) in the assay on RXF 393. Also, the GI50 was > 100 µM (inactive) with SF-268; > 100 µM (inactive) in the assay with SF-295; > 100 µM (inactive) in the assay on SK-MEL-2; > 100 µM (inactive) with SK-OV-3; > 100 µM (inactive) with SN12C; 89.3 µM (inactive) with SNB-75. In addition, the GI50 with T47D and in the assay with U-251 was > 100 µM (inactive) throughout.
As for `COc1cc2c(cc1OCCN1C(=O)c3cccc4cccc(c34)C1=O)N=C[C@@H]1CCCN1C2=O`, the GI50 in the assay on A498 was 9.04 µM (inactive); in the assay on CAKI-1, 7.5 µM (inactive); in the assay on DU-145 it was 8.89 µM (inactive); with EKVX it was 9.68 µM (inactive); in the assay with HOP-62, 21.5 µM (inactive); with HOP-92, 7.76 µM (inactive). The GI50 is 9.46 µM (inactive) in the assay with HT-29; 5.89 µM (inactive) with NCI-H460; 1.17 µM (inactive) with NCI-H522; 15.8 µM (inactive) with NCI/ADR-RES; 16 µM (inactive) in the assay on OVCAR-4; 7.8 µM (inactive) in the assay with RXF 393. The GI50 in the assay on SF-268 is 7.74 µM (inactive); with SF-295, 13.7 µM (inactive); with SK-MEL-2, 7.29 µM (inactive); in the assay with SK-OV-3, 24.3 µM (inactive); in the assay on SN12C, 7.93 µM (inactive); with SNB-75, 13.3 µM (inactive). In addition, the GI50 in the assay with T47D was 9.35 µM (inactive); in the assay on U-251, 6.15 µM (inactive).
Take `COC(=O)c1ccc2c(c1)sc1nc(-c3ccc(OC)cc3)cn12`: the GI50 with A498 was > 100 µM (inactive); with CAKI-1, > 100 µM (inactive); in the assay with DU-145, > 100 µM (inactive); in the assay on EKVX it was > 100 µM (inactive); with HOP-62 it was > 100 µM (inactive); in the assay on HOP-92, 24.7 µM (inactive). Also, the GI50 in the assay on HT-29 was 83.4 µM (inactive); in the assay with NCI-H460, > 100 µM (inactive); in the assay on NCI-H522, 62.2 µM (inactive); in the assay on NCI/ADR-RES it was > 100 µM (inactive); with OVCAR-4, > 100 µM (inactive); in the assay with RXF 393, 69.8 µM (inactive). Also, the GI50 in the assay with SF-268 is 83.8 µM (inactive); in the assay with SF-295 it was > 100 µM (inactive); with SK-MEL-2, > 100 µM (inactive); in the assay on SK-OV-3, > 100 µM (inactive); in the assay with SN12C it was > 100 µM (inactive); in the assay with SNB-75, 34.8 µM (inactive). In addition, the GI50 was 35.2 µM (inactive) in the assay with T47D and 31.7 µM (inactive) in the assay on U-251.
Take `COc1cc2c[n+](C)c3c4cc(OC)c(OCc5ccccc5)cc4c(OCc4ccccc4)cc3c2cc1OC`: the GI50 with A498 is 48 µM (inactive); with CAKI-1, 35.2 µM (inactive); in the assay with DU-145, 11.5 µM (inactive); with EKVX, 38.5 µM (inactive); in the assay with HOP-62, 13.8 µM (inactive); with HOP-92, 1.84 µM (inactive). Besides, the GI50 in the assay with HT-29 is 3.61 µM (inactive); with NCI-H460 it was 33 µM (inactive); in the assay on NCI-H522 it was 0.416 µM (active); with NCI/ADR-RES, 84.7 µM (inactive); in the assay with OVCAR-4, 4.11 µM (inactive); in the assay with RXF 393, 12.1 µM (inactive). For the same molecule, the GI50 with SF-268 was 3.44 µM (inactive); in the assay on SF-295, 25.7 µM (inactive); in the assay with SK-MEL-2, 2.1 µM (inactive); in the assay on SK-OV-3 it was 5.68 µM (inactive); in the assay on SN12C, 4.03 µM (inactive); in the assay on SNB-75 it was 4.46 µM (inactive). Further, the GI50 was 5.22 µM (inactive) in the assay with T47D and 0.449 µM (active) with U-251.
As to `COc1ccc(C(c2c[nH]c3ccc(Br)cc23)c2c[nH]c3ccc(Br)cc23)cc1`, the GI50 in the assay with A498 is 1.04 µM (active); in the assay on CAKI-1 it was 0.382 µM (active); in the assay with DU-145, 0.364 µM (active); with EKVX it was 0.38 µM (active); with HOP-62 it was 0.411 µM (active); with HOP-92, 0.213 µM (active). Moreover, the GI50 in the assay on HT-29 was 0.294 µM (active); in the assay on NCI-H460 it was 0.228 µM (active); in the assay with NCI-H522, 0.173 µM (active); in the assay with NCI/ADR-RES it was 0.357 µM (active); in the assay with OVCAR-4, 0.267 µM (active); with RXF 393, 0.278 µM (active). Moreover, the GI50 in the assay on SF-268 was 0.33 µM (active); with SF-295 it was 0.313 µM (active); with SK-MEL-2, 0.366 µM (active); in the assay on SK-OV-3 it was 1.24 µM (inactive); with SN12C it was 0.31 µM (active); with SNB-75 it was 0.352 µM (active). The GI50 in the assay with T47D is 0.446 µM (active); in the assay on U-251, 0.22 µM (active).
In the case of `COc1ccc(Oc2nc3cc(C(F)(F)F)ccc3nc2C(C)C)cc1`, the GI50 in the assay on A498 is 20 µM (inactive); with CAKI-1, 35.2 µM (inactive); with DU-145, 27.2 µM (inactive); with EKVX, 19.2 µM (inactive); in the assay with HOP-62, 40.4 µM (inactive); with HOP-92, 17.2 µM (inactive). In addition, the GI50 with HT-29 was 19 µM (inactive); in the assay on NCI-H460 it was 23.2 µM (inactive); in the assay on NCI-H522, 19.1 µM (inactive); with NCI/ADR-RES, 19.4 µM (inactive); in the assay on OVCAR-4, 34.7 µM (inactive); in the assay on RXF 393, 15.8 µM (inactive). For the same molecule, the GI50 was 32.7 µM (inactive) in the assay with SF-268; 21.2 µM (inactive) in the assay on SF-295; 18.5 µM (inactive) in the assay with SK-MEL-2; 38.7 µM (inactive) in the assay on SK-OV-3; 24.5 µM (inactive) in the assay on SN12C; 25.4 µM (inactive) in the assay with SNB-75. The values for the GI50 with T47D and with U-251 were 15.1 µM (inactive) and 23.1 µM (inactive), respectively.
Take `O=C1C(NCCO)=C(N2CC2)C(=O)C(NCCO)=C1N1CC1`: the GI50 was > 100 µM (inactive) with A498; 85.9 µM (inactive) in the assay with CAKI-1; > 77.3 µM (inactive) in the assay with DU-145; > 81.1 µM (inactive) in the assay with EKVX; 27.4 µM (inactive) in the assay with HOP-62; > 73.1 µM (inactive) with HOP-92. For the same molecule, the GI50 in the assay on HT-29 was 49 µM (inactive); in the assay with NCI-H460, 10.2 µM (inactive); with NCI-H522 it was 31.3 µM (inactive); in the assay with NCI/ADR-RES it was > 100 µM (inactive); in the assay with OVCAR-4, > 57.4 µM (inactive); in the assay on RXF 393, 71.3 µM (inactive). The GI50 with SF-268 is 30.8 µM (inactive); with SF-295, 26.5 µM (inactive); in the assay on SK-MEL-2, > 58.3 µM (inactive); in the assay on SK-OV-3, > 70.6 µM (inactive); in the assay with SN12C, 26.5 µM (inactive); in the assay with SNB-75, 63.8 µM (inactive). Also, the figures for the GI50 in the assay on T47D and in the assay on U-251 were > 69.2 µM (inactive) and 31.5 µM (inactive), respectively.
For the molecule `CC(C)(C)C1=CC(=C2C=Cc3cc(O)ccc3O2)C=C(C(C)(C)C)C1=O`, the GI50 is 1.5 µM (inactive) in the assay with A498; 1.62 µM (inactive) in the assay with CAKI-1; 1.45 µM (inactive) in the assay on DU-145; 1.85 µM (inactive) with EKVX; 1.92 µM (inactive) with HOP-62; 1.67 µM (inactive) in the assay on HOP-92. Further, the GI50 was 1.65 µM (inactive) with HT-29; 1.34 µM (inactive) with NCI-H460; 1.48 µM (inactive) in the assay with NCI-H522; 1.95 µM (inactive) in the assay on NCI/ADR-RES; 1.31 µM (inactive) in the assay on OVCAR-4; 1.45 µM (inactive) with RXF 393. For the same molecule, the GI50 in the assay on SF-268 is 1.81 µM (inactive); in the assay with SF-295, 1.87 µM (inactive); in the assay on SK-MEL-2 it was 1.63 µM (inactive); in the assay with SK-OV-3, 2.21 µM (inactive); with SN12C, 1.63 µM (inactive); in the assay with SNB-75, 1.73 µM (inactive). In addition, the GI50 was 0.627 µM (active) in the assay on T47D and 1.39 µM (inactive) with U-251.
With `COC(=O)C1OC(O[C@H]2CC[C@]3(C)[C@H]4CC=C5[C@@H]6CC(C)(C)CC[C@]6(C(=O)OC6OCC(O)C(O)C6OC6OC(C)C(OC7OCC(OC8OCC(O)C(O)C8O)C(O)C7O)C(O)C6O)[C@H](O)C[C@@]5(C)[C@]4(C)CC[C@H]3C2(C)C)C(O)C(O)C1O` (stereo not given in full), the GI50 in the assay on A498 was 2.03 µM (inactive); with CAKI-1 it was 2.87 µM (inactive); in the assay on DU-145 it was 2.13 µM (inactive); in the assay with EKVX, 2.32 µM (inactive); with HOP-62, 5.33 µM (inactive); with HOP-92, 1.91 µM (inactive). Moreover, the GI50 is 2.71 µM (inactive) in the assay with HT-29; 16 µM (inactive) in the assay on NCI-H460; 2.66 µM (inactive) in the assay on NCI-H522; 6.41 µM (inactive) in the assay on NCI/ADR-RES; 9.31 µM (inactive) in the assay with OVCAR-4; 11.4 µM (inactive) in the assay on RXF 393. Further, the GI50 is 4.72 µM (inactive) in the assay with SF-268; 3.05 µM (inactive) in the assay with SF-295; 3.02 µM (inactive) with SK-MEL-2; 14.9 µM (inactive) in the assay with SK-OV-3; 1.8 µM (inactive) with SN12C; 3.44 µM (inactive) in the assay with SNB-75. Besides, the GI50 in the assay with T47D is 1.43 µM (inactive); with U-251 it was 5.83 µM (inactive).
